According to the NIST ThermoML archive (doi:10.1021/je0341918):

How the values were obtained:
[1] = 101.33 kPa, Liquid
[2] = molar heat capacity at constant pressure; settings: 298.15 K; 101.33 kPa; Liquid; Small sample (50 mg) DSC
[3] = molar heat capacity at constant pressure; xn = mol fraction of the nth substance listed; settings: 101.3 kPa, Liquid, Small sample (50 mg) DSC, x2 = 0
[4] = xn = mol fraction of the nth substance listed; settings: 101.3 kPa, Liquid, x2 = 0

OCCCCO [1,4-butanediol]
[1]
Settings	mass density [kg/m3]	viscosity [mPa·s]
293.15 K	1015.76	90.33
298.15 K	1012.68	71.15
303.15 K	1009.54	55.98
308.15 K	1006.43	44.44
313.15 K	1003.37	35.74
318.15 K	1000.45	29.11
323.15 K	997.14	23.63
328.15 K	994.02	19.68
333.15 K	990.93	16.17
338.15 K	987.93	13.65
343.15 K	984.81	11.45
348.15 K	981.7	9.778
353.15 K	978.59	8.28
363.15 K	972.71	6.213

Settings	molar heat capacity at constant pressure [J/K/mol]
[2]	200.9

O [water] + OCCCCO
Settings	mass density, [4] [kg/m3]	molar heat capacity at constant pressure, [3] [J/K/mol]	viscosity, [4] [mPa·s]
293.15 K	–	75.2	1.002
303.15 K	–	75.3	0.797
313.15 K	–	75.2	0.653
323.15 K	988.05	75.2	0.547
333.15 K	983.21	75.2	0.467
343.15 K	977.79	75.3	0.405
353.15 K	971.83	75.4	0.356
